Where “and” joins values, the source holds several entries; their conditions need not be identical. Identical values can stand only once. Like-named read-outs stand apart in the source and are kept apart here.
Columns and labels:
Format in all cases: cell-based
[1] = system: A2780 ovarian cancer cells; assay: Live/dead cell viability assay; details: free or released from Dox-MagSiNs by AC magnetic field
Protocol: (§1) The media in each well of the chamber slides was carefully aspirated, and the wells were rinsed twice with 400 μL of 1×PBS. The cells were incubated with Ethidium-homodimer Ill dye and Calcein-AM dye mix at manufacturer recommended concentrations (Life-technologies), and the slides were incubated for 30 minutes in the cell incubator, in the dark. After incubation, the wells were rinsed twice with 400 μL of 1×PBS. Lastly, 300 μL of 4% buffered parafomaldehyde was added to each well, and the slides were taken to be imaged with a NikonU inverted fluorescent microscope with a 10× lens using a standard FITC/RITC green and red fluorescent filter cubes.
(§2) Viable cell populations of treated and untreated control cancer cell lines and treated and untreated normal cell lines were determined at the end of each run using a calcein-AM/propidium iodide assay to determine total cells and viable cell populations. The calcein-AM assay is based on the conversion of the cell permeant non-fluorescent calcein-AM dye to the fluorescent calcein dye by intracellular esterase activity in live cells. […] When PI does gain access to nucleic acids and intercalates, its fluorescence increases dramatically and is therefore used to identify dead cells. Calcein-Am and PI can be used separately or together to assess cellular viability or cell death, respectively.
(§3) In this study, for each sample set (control group or test group), the total number of cells with green fluorescence and the total number of cells with red fluorescence were counted as separate datasets. […] For each sample set, the percent dead-cells and percent live-cells was calculated. The percent live-cells was used as a measure of viability. A paired t-test under the assumption of comparing two-samples with equal variances and a >=0.05 was used to determine the statistical significance of the test-groups in comparison to the control groups.
(§4) A unidirectional magnetic field of 30-50 Gauss and an alternating magnetic field of 100 Hz, 30-50 Gauss were used for these experiments.

[2] = system: PC-3 prostate cancer cells; assay: Live/dead cell viability assay; details: 500 nM Dox, free or released from Dox-MagSiNs by AC magnetic field, hydrochloride
Protocol: as §1, §2, §3, §4

HUVEC cells = assay: Live/dead cell viability assay; details: free or released from Dox-MagSiNs by AC magnetic field, permanent magnet 24 h then AC field 10 h, assay at 48 h
Protocol: as §1, §2, §3, §4

[3] = system: MDA-MB-231 triple-negative breast cancer cells; details: free or released from Dox-MagSiNs by AC magnetic field
Protocol: as §1
Viable cell populations of treated and untreated control cancer cell lines and treated and untreated normal cell lines were determined at the end of each run using a calcein-AM/propidium iodide assay to determine total cells and viable cell populations. […] When PI does gain access to nucleic acids and intercalates, its fluorescence increases dramatically and is therefore used to identify dead cells. […]
In this study, for each sample set (control group or test group), the total number of cells with green fluorescence and the total number of cells with red fluorescence were counted as separate datasets. […] For each sample set, the percent dead-cells and percent live-cells was calculated. […]

For `COc1cccc2c1C(=O)c1c(O)c3c(c(O)c1C2=O)C[C@@](O)(C(=O)CO)C[C@@H]3O[C@H]1C[C@H](N)[C@H](O)[C@H](C)O1.Cl` [Dox·HCl, doxorubicin hydrochloride], the cell death ([1]; 20 nM Dox) was over 20%, the cell death ([1]; 500 nM Dox, hydrochloride) was 83% and the cell death ([1]; 500 nM Dox, listed as Dox, hydrochloride) was 83% and 80-85%. The cell death [2] was 100%, the cell death ([2]; listed as Dox) was 100% and > 95% and the cell death (HUVEC cells; 20 nM Dox·HCl) was 100%. For the same compound, the cell death (HUVEC cells; 500 nM Dox·HCl) was 100%, the cell death ([3]; 20 nM Dox) was “insignificant cell death” and the cell death ([3]; 500 nM Dox) was 4%.
